Data reported in patent publication US20230085307A1, “PYRIDAZINONE COMPOUND AND HERBICIDE” (NISSAN CHEMICAL CORPORATION, priority 2019, published 2023).

How the values were obtained:
barnyard grass [1] = assay: Test Example 5: herbicidal effect by foliage application, plastic box (Table 20, symbol H); assay type: in vivo, barnyard grass (Echinochloa crus-galli); conditions: amount of applied herbicide 320 g/ha; foliage application after 14-day growth; evaluated three weeks after application
Method in brief: (§1)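 Post-emergence foliar test in sterilized diluvial soil. Compound applied as water-diluted emulsion at a predetermined rate to 14-day-old plants; evaluation at three weeks.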

velvetleaf [2] = assay: Test Example 5: herbicidal effect by foliage application, plastic box (Table 20, symbol M); assay type: in vivo, velvetleaf (Abutilon theophrasti); conditions: amount of applied herbicide 320 g/ha; foliage application after 14-day growth; evaluated three weeks after application
Method in brief: as §1

blackgrass [3] = assay: Test Example 4: herbicidal effect by soil treatment (Table 19, symbol J); assay type: in vivo, blackgrass (Alopecurus myosuroides); conditions: amount of applied herbicide 320 g/ha
Method in brief: (§2)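 Emulsion of test compound, water-diluted to predetermined amount, sprayed on soil after sowing (seed depth ~1.5 cm, sterilized diluvial soil). Greenhouse, 25–30° C. Effect graded at three weeks post-spray.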

lambsquarters [4] = assay: Test Example 4: herbicidal effect by soil treatment (Table 19, symbol O); assay type: in vivo, lambsquarters (Chenopodium album); conditions: amount of applied herbicide 320 g/ha
Method in brief: as §2

oval-leafed pondweed = assay: Test Example 1: herbicidal activity, application before weed generation under submerged conditions (Table 16, symbol C); assay type: in vivo, oval-leafed pondweed (Monochoria vaginalis); conditions: amount of applied herbicide 320 g/ha
Method in brief: (§3)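 Submerged Wagner pots (alluvial soil, 4 cm water) sown with weed seeds and planted with 2.5-leaf rice seedlings; emulsifiable concentrate diluted in water applied to water surface on sowing day. Held in greenhouse at 25-30 °C; injury scored 0-5 by herbicidal rate after three weeks.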

windgrass [5] = assay: Test Example 5: herbicidal effect by foliage application, plastic box (Table 20, symbol L); assay type: in vivo, windgrass (Apera spica-venti); conditions: amount of applied herbicide 320 g/ha; foliage application after 14-day growth; evaluated three weeks after application
Method in brief: as §1

chickweed [6] = assay: Test Example 4: herbicidal effect by soil treatment (Table 19, symbol P); assay type: in vivo, common chickweed (Stellaria media); conditions: amount of applied herbicide 320 g/ha
Method in brief: as §2

Italian ryegrass [7] = assay: Test Example 4: herbicidal effect by soil treatment (Table 19, symbol K); assay type: in vivo, Italian ryegrass (Lolium multiflorum); conditions: amount of applied herbicide 320 g/ha
Method in brief: as §2

wild oat [8] = assay: Test Example 4: herbicidal effect by soil treatment (Table 19, symbol I); assay type: in vivo, wild oat (Avena fatua); conditions: amount of applied herbicide 320 g/ha
Method in brief: as §2

green foxtail [9] = assay: Test Example 5: herbicidal effect by foliage application, plastic box (Table 20, symbol G); assay type: in vivo, green foxtail (Setaria viridis); conditions: amount of applied herbicide 320 g/ha; foliage application after 14-day growth; evaluated three weeks after application
Method in brief: as §1

green foxtail [10] = assay: Test Example 4: herbicidal effect by soil treatment (Table 19, symbol G); assay type: in vivo, green foxtail (Setaria viridis); conditions: amount of applied herbicide 320 g/ha
Method in brief: as §2

southern crabgrass [11] = assay: Test Example 5: herbicidal effect by foliage application, plastic box (Table 20, symbol F); assay type: in vivo, southern crabgrass (Digitaria ciliaris); conditions: amount of applied herbicide 320 g/ha; foliage application after 14-day growth; evaluated three weeks after application
Method in brief: as §1

rice flat sedge = assay: Test Example 3: herbicidal effect by foliage application, Wagner pot (Table 18, symbol E); assay type: in vivo, rice flat sedge (Cyperus iria); conditions: 320 g/ha
Method in brief: (§4)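 Plants were sown in alluvial soil held under 0.1–0.5 cm standing water and grown 14 days in a greenhouse at 25–30 °C. An emulsifiable formulation, water-diluted to the set dose, was then sprayed onto the foliage, and effects were scored three weeks later using previously defined criteria.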

barnyard grass [12] = assay: Test Example 3: herbicidal effect by foliage application, Wagner pot (Table 18, symbol H); assay type: in vivo, barnyard grass (Echinochloa crus-galli); conditions: 320 g/ha
Method in brief: as §4

persian speedwell [13] = assay: Test Example 4: herbicidal effect by soil treatment (Table 19, symbol R); assay type: in vivo, Persian speedwell (Veronica persica); conditions: amount of applied herbicide 320 g/ha
Method in brief: as §2

redroot pigweed [14] = assay: Test Example 4: herbicidal effect by soil treatment (Table 19, symbol N); assay type: in vivo, redroot pigweed (Amaranthus retroflexus); conditions: amount of applied herbicide 320 g/ha
Method in brief: as §2

barnyard grass [15] = assay: Test Example 4: herbicidal effect by soil treatment (Table 19, symbol H); assay type: in vivo, barnyard grass (Echinochloa crus-galli); conditions: amount of applied herbicide 320 g/ha
Method in brief: as §2

chickweed [16] = assay: Test Example 5: herbicidal effect by foliage application, plastic box (Table 20, symbol P); assay type: in vivo, common chickweed (Stellaria media); conditions: amount of applied herbicide 320 g/ha; foliage application after 14-day growth; evaluated three weeks after application
Method in brief: as §1

blackgrass [17] = assay: Test Example 5: herbicidal effect by foliage application, plastic box (Table 20, symbol J); assay type: in vivo, blackgrass (Alopecurus myosuroides); conditions: amount of applied herbicide 320 g/ha; foliage application after 14-day growth; evaluated three weeks after application
Method in brief: as §1

Chinese sprangletop = assay: Test Example 3: herbicidal effect by foliage application, Wagner pot (Table 18, symbol D); assay type: in vivo, chinese sprangletop (Leptochloa chinensis); conditions: 320 g/ha
Method in brief: as §4

redroot pigweed [18] = assay: Test Example 5: herbicidal effect by foliage application, plastic box (Table 20, symbol N); assay type: in vivo, redroot pigweed (Amaranthus retroflexus); conditions: amount of applied herbicide 320 g/ha; foliage application after 14-day growth; evaluated three weeks after application
Method in brief: as §1

velvetleaf [19] = assay: Test Example 4: herbicidal effect by soil treatment (Table 19, symbol M); assay type: in vivo, velvetleaf (Abutilon theophrasti); conditions: amount of applied herbicide 320 g/ha
Method in brief: as §2

windgrass [20] = assay: Test Example 4: herbicidal effect by soil treatment (Table 19, symbol L); assay type: in vivo, windgrass (Apera spica-venti); conditions: amount of applied herbicide 320 g/ha
Method in brief: as §2

wild oat [21] = assay: Test Example 5: herbicidal effect by foliage application, plastic box (Table 20, symbol I); assay type: in vivo, wild oat (Avena fatua); conditions: amount of applied herbicide 320 g/ha; foliage application after 14-day growth; evaluated three weeks after application
Method in brief: as §1

persian speedwell [22] = assay: Test Example 5: herbicidal effect by foliage application, plastic box (Table 20, symbol R); assay type: in vivo, Persian speedwell (Veronica persica); conditions: amount of applied herbicide 320 g/ha; foliage application after 14-day growth; evaluated three weeks after application
Method in brief: as §1

Japanese bulrush = assay: Test Example 1: herbicidal activity, application before weed generation under submerged conditions (Table 16, symbol B); assay type: in vivo, Japanese bulrush (Schoenoplectus juncoides); conditions: amount of applied herbicide 320 g/ha
Method in brief: as §3

late watergrass = assay: Test Example 1: herbicidal activity, application before weed generation under submerged conditions (Table 16, symbol A); assay type: in vivo, late watergrass (Echinochloa oryzicola); conditions: amount of applied herbicide 320 g/ha
Method in brief: as §3

lambsquarters [23] = assay: Test Example 5: herbicidal effect by foliage application, plastic box (Table 20, symbol O); assay type: in vivo, lambsquarters (Chenopodium album); conditions: amount of applied herbicide 320 g/ha; foliage application after 14-day growth; evaluated three weeks after application
Method in brief: as §1

southern crabgrass [24] = assay: Test Example 4: herbicidal effect by soil treatment (Table 19, symbol F); assay type: in vivo, southern crabgrass (Digitaria ciliaris); conditions: amount of applied herbicide 320 g/ha
Method in brief: as §2

Italian ryegrass [25] = assay: Test Example 5: herbicidal effect by foliage application, plastic box (Table 20, symbol K); assay type: in vivo, Italian ryegrass (Lolium multiflorum); conditions: amount of applied herbicide 320 g/ha; foliage application after 14-day growth; evaluated three weeks after application
Method in brief: as §1

COc1ccccc1-c1sc2c(C)cccc2c1-c1c(O)c(C)nn(C)c1=O [4-106]
Herbicidal effect by foliage application, H: barnyard grass (barnyard grass [1]): 1 (Herbicidal rate of 5% or more and less than 20%)
Herbicidal effect by foliage application, M: velvetleaf (velvetleaf [2]): 3 (Herbicidal rate of 40% or more and less than 70%)
Herbicidal effect by soil treatment, J: blackgrass (blackgrass [3]): 0 (Herbicidal rate of 5% or less (almost no effect))
Herbicidal effect by soil treatment, O: lambsquarters (lambsquarters [4]): 1 (Herbicidal rate of 5% or more and less than 20%)
Herbicidal effect, C: oval-leafed pondweed (oval-leafed pondweed): 0 (Herbicidal rate of 5% or less (almost no effect))
Herbicidal effect by foliage application, L: windgrass (windgrass [5]): 5 (Herbicidal rate of 90% or more (almost completely withered))
Herbicidal effect by soil treatment, P: chickweed (chickweed [6]): 1 (Herbicidal rate of 5% or more and less than 20%)
Herbicidal effect by soil treatment, K: Italian ryegrass (Italian ryegrass [7]): 0 (Herbicidal rate of 5% or less (almost no effect))
Herbicidal effect by soil treatment, I: wild oat (wild oat [8]): 0 (Herbicidal rate of 5% or less (almost no effect))
Herbicidal effect by foliage application, G: green foxtail (green foxtail [9]): 0 (Herbicidal rate of 5% or less (almost no effect))
Herbicidal effect by soil treatment, G: green foxtail (green foxtail [10]): 1 (Herbicidal rate of 5% or more and less than 20%)
Herbicidal effect by foliage application, F: southern crabgrass (southern crabgrass [11]): 1 (Herbicidal rate of 5% or more and less than 20%)
herbicidal effect on rice flat sedge (E) (rice flat sedge): 5 (Herbicidal rate of 90% or more (almost completely withered))
herbicidal effect on barnyard grass (H) (barnyard grass [12]): 4 (Herbicidal rate of 70% or more and less than 90%)
Herbicidal effect by soil treatment, R: persian speedwell (persian speedwell [13]): 1 (Herbicidal rate of 5% or more and less than 20%)
Herbicidal effect by soil treatment, N: redroot pigweed (redroot pigweed [14]): 4 (Herbicidal rate of 70% or more and less than 90%)
Herbicidal effect by soil treatment, H: barnyard grass (barnyard grass [15]): 0 (Herbicidal rate of 5% or less (almost no effect))
Herbicidal effect by foliage application, P: chickweed (chickweed [16]): 5 (Herbicidal rate of 90% or more (almost completely withered))
Herbicidal effect by foliage application, J: blackgrass (blackgrass [17]): 4 (Herbicidal rate of 70% or more and less than 90%)
herbicidal effect on Chinese sprangletop (D) (Chinese sprangletop): 0 (Herbicidal rate of 5% or less (almost no effect))
Herbicidal effect by foliage application, N: redroot pigweed (redroot pigweed [18]): 4 (Herbicidal rate of 70% or more and less than 90%)
Herbicidal effect by soil treatment, M: velvetleaf (velvetleaf [19]): 0 (Herbicidal rate of 5% or less (almost no effect))
Herbicidal effect by soil treatment, L: windgrass (windgrass [20]): 3 (Herbicidal rate of 40% or more and less than 70%)
Herbicidal effect by foliage application, I: wild oat (wild oat [21]): 2 (Herbicidal rate of 20% or more and less than 40%)
Herbicidal effect by foliage application, R: persian speedwell (persian speedwell [22]): 5 (Herbicidal rate of 90% or more (almost completely withered))
Herbicidal effect, B: Japanese bulrush (Japanese bulrush): 0 (Herbicidal rate of 5% or less (almost no effect))
Herbicidal effect, A: late watergrass (late watergrass): 2 (Herbicidal rate of 20% or more and less than 40%)
Herbicidal effect by foliage application, O: lambsquarters (lambsquarters [23]): 3 (Herbicidal rate of 40% or more and less than 70%)
Herbicidal effect by soil treatment, F: southern crabgrass (southern crabgrass [24]): 3 (Herbicidal rate of 40% or more and less than 70%)
Herbicidal effect by foliage application, K: Italian ryegrass (Italian ryegrass [25]): 4 (Herbicidal rate of 70% or more and less than 90%)
